No end group written: not given here. *: point of attachment. Biotin = O=C1N[C@H]2[C@H](CS[C@H]2CCCCC(=O)*)N1
How the values were obtained:
[1] = test system: cell surface bound CLIP on Raji and Daudi cells; assay: Competition of synthetic peptides with cell surface CLIP (Fitc anti-human CLIP); type: cell-based; settings: biotinylated peptides
Description: Based on a computational model comparing the peptide content of TNP mixture and identifying those peptides that would have the likeliest ability to compete for the peptide/antigen binding site for MHC class II (human HLA-DR, DP, and DQ), several peptide candidates were synthesized and examined for activity. The purpose of the study was to determine if synthetic peptides can compete for binding with CLIP peptides as measured with either Fitc anti-human CLIP antibody or, comparatively in the case of biotinylated peptides, with Streptavidin.
Cell Culture Conditions: The Raji and Daudi cell lines were purchased from American Type Culture Collection, were thawed, and grown in RPMI 1640 medium supplemented with standard supplements, including 10% fetal calf serum, gentamycin, penicillin, streptomycin, sodium pyruvate, HEPES buffer, 1-glutamine, and 2-ME.
Protocol: Cells were plated into a 12 well plate with 3 mls total volume containing approximately 1.5×10^6/well for Daudi cells and 3.0×10^6/well for Raji cells. Treatment groups included no treatment as control; MKN 3 and MKN 5 at 50 microMolar final concentration based on the reported molarity of the synthesized compounds.
The cells were incubated at 37° C. in an atmosphere containing 5% CO2 and approximately 92% humidity. The cells were incubated for 4 and 24 hours. At each time point, the cells from that experimental time were harvested and stained for flow cytometric analysis of cell surface expression of CLIP (MHC Class II invariant peptide, human) by using the commercially available (Becton/Dickinson/PHarmingen) anti-human CLIP Fitc. Catalogue #555981 versus Streptavidin.
Harvested cells were stained using standard staining procedure that called for a 1:100 dilution of Fitc-anti-human CLIP or isotype control versus 1:200 dilution of the commercially prepared Streptavidin. Following staining on ice for 25 minutes, cells were washed with PBS/FCS and resuspended in 100 microliters and added to staining tubes containing 400 microliters of PBS. Samples were acquired and analyzed on a Coulter Excel Flow Cytometer.
In the Histogram analyses of FIGS. 4-6 the Y axis represents cell number of the 5000 live cells versus the X axis which is a reflection of relative Fitc fluorescence versus Streptavidin-PE (eBioscience, Cat. #12-4317) that will bind with high affinity to cell-bound biotinylated peptides. The distance between the histogram from the isotype control staining versus the histogram reflecting the specific stain and is a measure of level of cell surface CLIP or the biotinylated peptide when stained with Streptavidin on a population of live Raji or Daudi cells as indicated.

[2] = test system: cell surface CD74 on Raji or Daudi cells; settings: 24 and 48 hours; cited from earlier work
[3] = test system: cell surface CLIP on Raji or Daudi cells; settings: 24 and 48 hours; cited from earlier work
[4] = biological target: gp41 HIV-1 envelope protein (gp41 fragment) of Example 14 (HIV-1); assay: native gel electrophoresis, quantitative analysis

Substance	Cell surface bound CLIP (Fitc-Anti-CLIP) ([1]; 4 hours)	Cell surface bound CLIP (Fitc-Anti-CLIP) ([1]; 24 hours)	Cell surface CD74 levels [2]	Cell surface CLIP levels [3]	binding stoichiometry (TNP to gp41) (gp41 per 1 TNP (ratio 1:0.8)) [4]
SGG GKA LVQ NDT LLQ VKG (Biotin-SGGGKALVQNDTLLQVKG) [TNP1]	small decreases	significant decreases			
FRIMAVLAS [SGG GAN SGF RIM AVL ASG GQY, unmodified form is MKN.4]	small decreases	significant decreases			
SGG GSK MRM ATP LLM QAL Y [MKN1]			alters	alters	
thymus nuclear protein (TNP) extract from calf thymus					0.8
